Measurements reported in ChEMBL document CHEMBL6078688, “Discovery of Novel MyD88 Inhibitor A5S to Alleviate Acute Lung Injury with Favorable Drug-like Properties” (J Med Chem, 2024).
Active and inactive are the calls of the source. The calls are words filed in the database; no cut-off is given here.

Key:
[1] = system: THP-1; experiment: Anti-inflammatory activity in LPS-induced human THP-1 cells assessed as inhibition of IL-6 production at 10 uM by ELISA relative to control; format: functional
[2] = system: J774.A1; experiment: Cytotoxicity against mouse J774.A1 cells at 10 uM by MTT assay; format: toxicity, cell-based; conditions: j774.a1, 10 µM
[3] = system: J774.A1; experiment: Cytotoxicity against mouse J774.A1 cells at 3 to 12 uM by MTT assay; format: toxicity, cell-based; conditions: j774.a1, 12 µM, dose 3-12 µM
[4] = system: J774.A1; experiment: Anti-inflammatory activity in LPS-induced mouse J774.A1 cells assessed as inhibition of IL-6 production by ELISA; format: functional, cell-based
[5] = system: J774.A1; experiment: Anti-inflammatory activity in LPS-induced mouse J774.A1 cells assessed as inhibition of TNF-alpha production by ELISA; format: functional, cell-based
[6] = target: Toll-like receptor 4/Ly96 (Mus musculus) (UniProt Q9QUK6+Q9JHF9); experiment: Inhibition of MD2/TLR4 protein-protein interaction in LPS-induced mouse J774.A1 cells at 20 uM incubated for 2 hrs by coimmunoprecipitation analysis; format: cell-based
[7] = target: TLR4-MyD88 (Mus musculus) (UniProt Q9QUK6+P22366); experiment: Inhibition of MYD88/TLR4 protein-protein interaction in LPS-induced mouse J774.A1 cells at 20 uM incubated for 2 hrs by coimmunoprecipitation analysis; format: cell-based
Sequence of TLR4-MyD88 (Mus musculus) (P22366 whole entry, looked up): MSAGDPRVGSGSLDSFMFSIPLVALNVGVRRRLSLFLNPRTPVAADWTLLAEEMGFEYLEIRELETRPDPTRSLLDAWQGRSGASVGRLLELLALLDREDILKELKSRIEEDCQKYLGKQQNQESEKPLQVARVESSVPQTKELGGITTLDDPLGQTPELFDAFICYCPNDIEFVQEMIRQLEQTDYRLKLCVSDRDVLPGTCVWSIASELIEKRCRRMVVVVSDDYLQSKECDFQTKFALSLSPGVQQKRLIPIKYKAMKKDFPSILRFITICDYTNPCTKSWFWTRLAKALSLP
Sequence of TLR4-MyD88 (Mus musculus) (Q9QUK6 whole entry, looked up): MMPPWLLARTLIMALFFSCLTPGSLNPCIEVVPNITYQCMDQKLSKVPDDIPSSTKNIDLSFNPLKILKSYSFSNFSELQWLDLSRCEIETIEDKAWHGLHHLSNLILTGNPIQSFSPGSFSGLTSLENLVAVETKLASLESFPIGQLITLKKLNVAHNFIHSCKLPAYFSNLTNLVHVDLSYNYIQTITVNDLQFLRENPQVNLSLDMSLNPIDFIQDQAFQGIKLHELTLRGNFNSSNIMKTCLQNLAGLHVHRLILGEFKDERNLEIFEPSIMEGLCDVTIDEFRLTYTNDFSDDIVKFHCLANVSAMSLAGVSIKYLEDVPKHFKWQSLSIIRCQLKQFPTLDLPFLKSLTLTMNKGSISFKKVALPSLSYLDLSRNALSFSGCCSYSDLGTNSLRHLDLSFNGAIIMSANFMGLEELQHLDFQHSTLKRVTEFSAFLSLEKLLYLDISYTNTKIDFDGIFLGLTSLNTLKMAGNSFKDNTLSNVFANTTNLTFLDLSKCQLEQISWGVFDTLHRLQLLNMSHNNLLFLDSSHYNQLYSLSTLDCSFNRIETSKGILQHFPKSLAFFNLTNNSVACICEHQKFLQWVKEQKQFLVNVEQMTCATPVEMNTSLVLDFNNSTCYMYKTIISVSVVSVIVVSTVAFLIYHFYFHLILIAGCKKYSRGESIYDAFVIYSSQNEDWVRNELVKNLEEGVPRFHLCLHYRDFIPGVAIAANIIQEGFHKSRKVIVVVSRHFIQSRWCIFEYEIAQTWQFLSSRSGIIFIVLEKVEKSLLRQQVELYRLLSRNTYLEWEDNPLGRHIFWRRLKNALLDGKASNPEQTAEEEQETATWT

[8] = system: J774.A1; experiment: Inhibition of NF-kappaB signalling pathway in LPS-induced mouse J774.A1 cells assessed as upregulation of IkappaB-alpha expression by Western blotting analysis; format: cell-based
[9] = system: J774.A1; experiment: Inhibition of NF-kappaB signalling pathway in LPS-induced mouse J774.A1 cells assessed as downregulation of p65 phosphorylation by Western blotting analysis; format: cell-based
[10] = system: J774.A1; experiment: Anti-inflammatory activity in LPS-induced mouse J774.A1 cells assessed as inhibition of IL-6 production at 10 uM by ELISA; format: functional, cell-based
[11] = system: J774.A1; experiment: Anti-inflammatory activity in LPS-induced mouse J774.A1 cells assessed as inhibition of TNF-alpha production at 10 uM by ELISA; format: functional, cell-based
[12] = target: Myeloid differentiation primary response protein MyD88 (Homo sapiens, UniProt Q99836); experiment: Binding affinity to MYD88 (unknown origin) assessed as dissociation constant by biolayer interferometry
Sequence of Myeloid differentiation primary response protein MyD88 (Q99836 whole entry): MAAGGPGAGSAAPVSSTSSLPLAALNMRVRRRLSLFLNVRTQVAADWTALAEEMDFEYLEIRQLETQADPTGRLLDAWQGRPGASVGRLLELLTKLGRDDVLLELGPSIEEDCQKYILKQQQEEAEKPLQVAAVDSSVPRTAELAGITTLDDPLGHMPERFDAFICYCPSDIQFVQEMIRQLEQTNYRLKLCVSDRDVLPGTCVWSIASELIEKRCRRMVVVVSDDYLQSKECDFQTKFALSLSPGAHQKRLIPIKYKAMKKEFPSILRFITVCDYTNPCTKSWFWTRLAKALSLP

[13] = Drug concentration in Sprague-Dawley rat serum at 15 mg/kg,iv administration measured upto 24 hrs by LC-MS/MS analysis; format: ADME, organism-based; conditions: read-out: Ct

Structure (SMILES) | inhibition at 10 µM [1] | Activity [2] | further results
COc1ccccc1OCC(O)CN1CCN(CC(O)C(C)c2ccccc2)CC1 (configuration not stated) | 27.8% | Non-toxic | 
CC(c1ccccc1)C(O)CN1CCN(CC(O)COc2ccc(Br)cc2)CC1 (configuration not stated) | 47.9% | Non-toxic | 
COc1ccccc1OCC(O)CN1CCN(Cc2cc3ccccc3[nH]2)CC1 (configuration not stated) | 62.6% | Non-toxic | 
Cc1ccccc1OCC(O)CN1CCN(CC(O)C(C)c2cccc(F)c2)CC1 (configuration not stated) | 46.2% | Non-toxic | 
CC(c1cccc(F)c1)C(O)CN1CCN(CC(O)COc2ccc(Cl)cc2)CC1 (configuration not stated) | 55.5% | Non-toxic | 
O[C@@H](COc1ccc(Br)cc1)CN1CCN(Cc2cc3ccccc3[nH]2)CC1 |  |  | Activity [3]: Non-toxic; IC50 [4]: 0.82 µM; IC50 [5]: 3.75 µM; inhibition [6]: inactive; inhibition [7]: Active; inhibition [8]: Active; inhibition [9]: Active
CC(c1ccccc1)C(O)CN1CCN(CC(O)COc2ccccc2)CC1 (configuration not stated) | 30.5% | Non-toxic | 
CC(c1cccc(F)c1)C(O)CN1CCN(CC(O)COc2ccc(Br)cc2)CC1 (configuration not stated) | 43.1% | Non-toxic | 
CC(c1cccc(F)c1)C(O)CN1CCN(CC(O)COc2ccc(F)cc2)CC1 (configuration not stated) | 42.1% | Non-toxic | 
Cc1c(CN2CCN(C3CCNC3)CC2)[nH]c2ccc(F)cc12 (configuration not stated) | 71.7% | Non-toxic | inhibition [10]: Active; inhibition [11]: Active; Kd [12]: 276 µM
COc1ccc(OCC(O)CN2CCN(CC(O)C(C)c3cccc(F)c3)CC2)cc1 (configuration not stated) | 37.8% | Non-toxic | 
O=C(CCN1CCN(Cc2ccccc2)CC1)Nc1nc(-c2ccccc2)cs1 |  |  | concentration at 24 h [13]: 1190 ng/mL
CC(c1cccc(F)c1)C(O)CN1CCN(CC(O)COc2ccccc2)CC1 (configuration not stated) | 31.8% | Non-toxic | 
COc1ccc(OCC(O)CN2CCN(CC(O)C(C)c3ccccc3)CC2)cc1 (configuration not stated) | 46.8% | Non-toxic | 
OC(COc1ccc(Br)cc1)CN1CCN(Cc2cc3ccccc3[nH]2)CC1 (configuration not stated) | 84.2% | Non-toxic | Kd [12]: 84.8 µM
OC(COc1ccc(Cl)cc1)CN1CCN(Cc2cc3ccccc3[nH]2)CC1 (configuration not stated) | 85.3% | Non-toxic | 
CC(C)(C)c1ccc(OCC(O)CN2CCN(Cc3cc4ccccc4[nH]3)CC2)cc1 (configuration not stated) | 5.83% | Toxic | 
